Consider 23 compounds from patent US8435978B2, “Substituted sulfonamide compounds” (Gruenenthal GmbH, priority 2006, dated 2013).

Structures can show the parent of a compound that is named as a salt.

The target in test [1] is T1, B1R receptor of the rat (Rattus norvegicus, UniProt P97583).
T1 construct: host or cells: CHO K1 cells (Chinese hamster ovary), stably transfected
T1 sequence (P97583 1-337): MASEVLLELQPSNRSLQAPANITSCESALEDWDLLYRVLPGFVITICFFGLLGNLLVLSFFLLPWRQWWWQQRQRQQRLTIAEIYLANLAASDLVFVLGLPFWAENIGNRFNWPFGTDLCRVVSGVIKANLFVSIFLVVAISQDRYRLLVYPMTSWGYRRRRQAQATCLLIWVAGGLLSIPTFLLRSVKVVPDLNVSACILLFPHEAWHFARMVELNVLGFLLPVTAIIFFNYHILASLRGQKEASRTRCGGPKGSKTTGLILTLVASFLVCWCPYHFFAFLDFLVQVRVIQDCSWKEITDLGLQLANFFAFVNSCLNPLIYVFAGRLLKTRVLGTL
The test can be described thus: Functional study on the bradykinin receptor 1 (B1R), FLIPR Ca2+ assay, rB1R cells. It is filed as cell-based. The note with it: CHO-K1, test substance 10 μM, agonist Des-Arg9-bradykinin 100 nM, % inhibition compared with the maximum achievable inhibition, read-out: B1R Antagonism, rat [10 μM] % Inhibition. Summed up:
(§1)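 Readout: peak Fluo-4 Ca2+ fluorescence, FLIPR. Stable CHO K1 hB1R or rB1R cells; cpd 10 μM, 10 min preincubation, then agonist (hB1R: Lys-Des-Arg9-BK 0.5 nM; rB1R: Des-Arg9-BK 100 nM). Value = % inhibition relative to maximal achievable inhibition.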

Test [2] deals with T2, human B1R receptor (Homo sapiens, UniProt P46663).
T2 construct: host or cells: CHO K1 cells (Chinese hamster ovary), stably transfected
T2 sequence (P46663 1-353): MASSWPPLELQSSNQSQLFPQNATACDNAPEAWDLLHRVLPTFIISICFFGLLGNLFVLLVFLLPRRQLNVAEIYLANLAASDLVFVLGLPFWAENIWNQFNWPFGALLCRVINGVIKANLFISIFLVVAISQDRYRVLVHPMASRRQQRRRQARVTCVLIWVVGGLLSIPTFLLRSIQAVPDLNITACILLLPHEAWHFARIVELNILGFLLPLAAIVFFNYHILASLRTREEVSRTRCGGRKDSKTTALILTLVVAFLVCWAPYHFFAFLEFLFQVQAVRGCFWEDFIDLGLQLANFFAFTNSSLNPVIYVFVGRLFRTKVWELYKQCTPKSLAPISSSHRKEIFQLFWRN
The test can be described thus: Functional study on the bradykinin receptor 1 (B1R), FLIPR Ca2+ assay, hB1R cells. It is filed as cell-based. Conditions: CHO-K1, test substance 10 μM, agonist Lys-Des-Arg9-bradykinin 0.5 nM, % inhibition compared with the maximum achievable inhibition, read-out: B1R Antagonism, human [10 μM] % Inhibition. The gist of the method: as §1

`COc1cc(C)c(S(=O)(=O)N2CCCCC2COCC(=O)NCc2ccc(N3CCN(C)CC3)cc2)c(C)c1` (stereo not shown) [Example 434, 2-((1-(4-methoxy-2,6-dimethylphenylsulfonyl)piperidin-2-yl)methoxy)-N-(4-(4-methylpiperazin-1-yl)benzyl)acetamide]: the inhibition – broadly, the drop in the measured response relative to a control, in per cent – at 10 µM in test [1] amounted to 101%; in test [2], 104%.

Regarding `Cc1cc(C)c(S(=O)(=O)N2CCCCC2COCC(=O)N2CCN(C3CCN(C)CC3)CC2)c(C)c1` (stereo not shown) [Example 107, 2-((1-(mesitylsulfonyl)piperidin-2-yl)methoxy)-1-(4-(1-methylpiperidin-4-yl)piperazin-1-yl)ethanone], the inhibition at 10 µM in test [1] and in test [2] was 102% each time.

Take `Cc1cc(C)c(S(=O)(=O)N2CCCCC2COCC(=O)N2CCN(c3nc(Cc4ccccc4)cs3)CC2)c(C)c1` (stereo not shown) [Example 234, 1-(4-(4-benzylthiazol-2-yl)piperazin-1-yl)-2-((1-(mesitylsulfonyl)piperidin-2-yl)methoxy)ethanone]: the inhibition at 10 µM was determined as 103% in test [1] and 52% in test [2].

Turning to `Cc1cc(S(=O)(=O)N2CCCCC2COCC(=O)N2CCN(Cc3ccccc3)CC2)c(C)cc1Cl` (stereo not shown) [Example 568, 1-(4-benzylpiperazin-1-yl)-2-((1-(4-chloro-2,5-dimethylphenylsulfonyl)piperidin-2-yl)methoxy)ethanone], the inhibition at 10 µM in test [1] was 81.3%; in test [2] it was 38.5%.

Take `COc1cc(C)c(S(=O)(=O)N2CCCC2COCC(=O)NCc2ccc(N3CCOCC3)cc2)c(C)c1` (stereo not shown) [Example 579, 2-((1-(4-methoxy-2,6-dimethylphenylsulfonyl)pyrrolidin-2-yl)methoxy)-N-(4-morpholinobenzyl)acetamide]: the inhibition at 10 µM turned out to be 107% in test [1] and 39.4% in test [2].

On to `COc1ccc(S(=O)(=O)N2CCCCC2COCC(=O)N2CCC(CCN3CCCCC3)CC2)cc1` (stereo not shown) [Example 52, 2-((1-(4-methoxyphenylsulfonyl)piperidin-2-yl)methoxy)-1-(4-(2-(piperidin-1-yl)-ethyl)piperidin-1-yl)ethanone], for which the inhibition at 10 µM was 92.8% in test [1] and 65% in test [2].

As for `COc1cc(C)c(S(=O)(=O)N2CCCCC2COCC(=O)N2CCN(C)CC2)c(C)c1` (stereo not shown) [Example 242, 2-((1-(4-methoxy-2,6-dimethylphenylsulfonyl)piperidin-2-yl)methoxy)-1-(4-methylpiperazin-1-yl)ethanone], the inhibition at 10 µM was 88% in test [1] and 102% in test [2].

Turning to `O=C(COCC1CCCCN1S(=O)(=O)c1ccc(Cl)c(Cl)c1)N1CCN(Cc2ccc3c(c2)OCO3)CC1` (stereo not shown) [Example 39, 1-(4-benzo[1,3]dioxol-5-ylmethyl-piperazin-1-yl)-2-[1-(3,4-dichloro-phenylsulfonyl)-piperidin-2-ylmethoxy]-ethanone], the inhibition at 10 µM in test [1] turned out to be 0%; in test [2], 73.2%.

In the case of `Cc1cc(F)cc(C)c1S(=O)(=O)N1CCCCC1COCC(=O)N1CCN(C2CCN(C)CC2)CC1` (stereo not shown) [Example 169, 2-((1-(4-fluoro-2,6-dimethylphenylsulfonyl)piperidin-2-yl)methoxy)-1-(4-(1-methylpiperidin-4-yl)piperazin-1-yl)ethanone dihydrochloride], the inhibition at 10 µM in test [1] stood at 101%; in test [2], 100%.

Regarding `CN1CCC(CN2CCN(C(=O)COC[C@@H]3Cc4ccccc4CN3S(=O)(=O)c3ccc(Cl)cc3Cl)CC2)CC1` [Example 184, (S)-2-((2-(2,4-dichlorophenylsulfonyl)-1,2,3,4-tetrahydroisoquinolin-3-yl)methoxy)-1-(4-((1-methylpiperidin-4-yl)methyl)piperazin-1-yl)ethanone], the inhibition at 10 µM came to 99% in test [1] and 105% in test [2].

As for `COc1cc(C)c(S(=O)(=O)N2CCCCC2COCC(=O)N2CCN(Cc3ccccc3F)CC2)c(C)c1` (stereo not shown) [Example 387, 1-(4-(2-fluorobenzyl)piperazin-1-yl)-2-((1-(4-methoxy-2,6-dimethylphenylsulfonyl)piperidin-2-yl)methoxy)ethanone], the inhibition at 10 µM in test [1] amounted to 101%; in test [2], 91%.

With `COc1cc(C)c(S(=O)(=O)N2CCCC2COCC(=O)Nc2ccc3c(c2)ncn3C)c(C)c1` (stereo not shown) [Example 494, 2-((1-(4-methoxy-2,6-dimethylphenylsulfonyl)pyrrolidin-2-yl)methoxy)-N-(1-methyl-1H-benzo[d]imidazol-5-yl)acetamide], the values for the inhibition at 10 µM in test [1] and in test [2] were 73.4% and 26.2%, respectively.

On to `COc1ccc(CN2CCN(C(=O)COCC3CCCCN3S(=O)(=O)c3c(C)cc(OC)cc3C)CC2)cc1` (stereo not shown) [Example 386, 2-((1-(4-methoxy-2,6-dimethylphenylsulfonyl)piperidin-2-yl)methoxy)-1-(4-(4-methoxybenzyl)piperazin-1-yl)ethanone], for which the results for the inhibition at 10 µM in test [1] and in test [2] were 97.9% and 101%, respectively.

Take `COc1cc(C)c(S(=O)(=O)N2CCCCC2COCC(=O)N2CCN(C3CCC(C)CC3)CC2)c(C)c1` (stereo not shown) [Example 105, 2-((1-(4-methoxy-2,6-dimethylphenylsulfonyl)piperidin-2-yl)methoxy)-1-(4-(4-methylcyclohexyl)piperazin-1-yl)ethanone]: the inhibition at 10 µM was 100% in test [1] and 106% in test [2].

In the case of `COc1cc(C)c(S(=O)(=O)N2CCCCC2COCC(=O)Nc2ccc(N3CCCC3)cc2)c(C)c1` (stereo not shown) [Example 409, 2-((1-(4-methoxy-2,6-dimethylphenylsulfonyl)piperidin-2-yl)methoxy)-N-(4-(pyrrolidin-1-yl)phenyl)acetamide], the figures for the inhibition at 10 µM in test [1] and in test [2] were 81.4% and 28.1%, respectively.

On to `COc1cc(C)c(S(=O)(=O)N2CCCC2COCC(=O)N2CCN(c3ccc(C)c(C)c3)CC2)c(C)c1` (stereo not shown) [Example 347, 1-(4-(3,4-dimethylphenyl)piperazin-1-yl)-2-((1-(4-methoxy-2,6-dimethylphenylsulfonyl)pyrrolidin-2-yl)methoxy)ethanone], for which the inhibition at 10 µM in test [1] was found to be 103%; in test [2] it was 56.6%.

In the case of `COc1cc(C)c(S(=O)(=O)N2CCCC2COCC(=O)N2CCC(c3nc4cc(C)ccc4[nH]3)CC2)c(C)c1` (stereo not shown) [Example 474, 2-((1-(4-methoxy-2,6-dimethylphenylsulfonyl)pyrrolidin-2-yl)methoxy)-1-(4-(5-methyl-1H-benzo[d]imidazol-2-yl)piperidin-1-yl)ethanone], the results for the inhibition at 10 µM in test [1] and in test [2] were 96.3% and 96.7%, respectively.

`COc1cc(C)c(S(=O)(=O)N2CCCCC2COCC(=O)NCCCn2ccnc2)c(C)c1` (stereo not shown) [Example 366, N-(3-(1H-imidazol-1-yl)propyl)-2-((1-(4-methoxy-2,6-dimethylphenylsulfonyl)piperidin-2-yl)methoxy)acetamide]: the inhibition at 10 µM in test [1] was determined as 99%; in test [2], 14.8%.

As to `COc1cc(C)c(S(=O)(=O)N2CCCCC2COCC(=O)N2CCCN(Cc3ccccc3)CC2)c(C)c1` (stereo not shown) [Example 362, 1-(4-benzyl-1,4-diazepan-1-yl)-2-((1-(4-methoxy-2,6-dimethylphenylsulfonyl)piperidin-2-yl)methoxy)ethanone], the values for the inhibition at 10 µM in test [1] and in test [2] were 102% and 103%, respectively.

`O=C(COCC1CCCCN1S(=O)(=O)c1cccc2ccccc12)N1CCC(N2CCCC2)CC1` (stereo not shown) [Example 23, 2-((1-(naphthalen-1-ylsulfonyl)piperidin-2-yl)methoxy)-1-(4-(pyrrolidin-1-yl)piperidin-1-yl)ethanone]: the results for the inhibition at 10 µM in test [1] and in test [2] were 85.3% and 92.3%, respectively.

For the compound `COc1cc(C)c(S(=O)(=O)N2CCCC2COCC(=O)N2CCN(Cc3ccc(Cl)c(Cl)c3)CC2)c(C)c1` (stereo not shown) [Example 349, 1-(4-(3,4-dichlorobenzyl)piperazin-1-yl)-2-((1-(4-methoxy-2,6-dimethylphenylsulfonyl)pyrrolidin-2-yl)methoxy)ethanone], the inhibition at 10 µM in test [1] stood at 103%; in test [2], 101%.

Regarding `O=C(COCC1CCCCN1S(=O)(=O)c1c(Cl)cccc1Cl)N1CCC(CCN2CCCCC2)CC1` (stereo not shown) [Example 279, 2-((1-(2,6-dichlorophenylsulfonyl)piperidin-2-yl)methoxy)-1-(4-(2-(piperidin-1-yl)ethyl)piperidin-1-yl)ethanone], the values for the inhibition at 10 µM in test [1] and in test [2] were 95.4% and 104%, respectively.

With `COc1cc(C)c(S(=O)(=O)N2CCCC2COCC(=O)N2CCN(c3ccccc3F)CC2)c(C)c1` (stereo not shown) [Example 516, 1-(4-(2-fluorophenyl)piperazin-1-yl)-2-((1-(4-methoxy-2,6-dimethylphenylsulfonyl)pyrrolidin-2-yl)methoxy)ethanone], the results for the inhibition at 10 µM in test [1] and in test [2] were 99.4% and 101%, respectively.
